# Test results reported in patent US12357598B2, “Treatment of neurodevelopmental disorders” (THE REGENTS OF THE UNIVERSITY OF CALIFORNIA, priority 2018, dated 2025).
# Key:
# [1] = tested on: ddY mice; assay: Oxylipin profiling of brain regions of juvenile offspring after prenatal poly(I:C) (MIA); type: in vivo, mouse; details: juvenile offspring (P28) after prenatal poly(I:C)
# Experimental: Administration of poly(I:C) into pregnant mice. The schedule of poly(I:C) treatment was performed as reported previously (13,36-39). The pregnant mice were injected intraperitoneally (i.p.) for six consecutive days from E12 to E17 with poly(I:C) (5.0 mg/kg/day, Sigma-Aldrich Co. Ltd., St. Louis, MO, USA) dissolved in physiological saline, or an equivalent volume (5 ml/kg) of saline. The male offspring were separated from their mothers at wearing (P21), and mice were caged each three-five in the groups in clear polycarbonate cage (22.5×33.8×14.0 cm). Mice were housed under controlled temperatures and 12-hour light/dark cycles (lights on between 07:00-19:00 h), with ad libitum food and water.
# Collection of brain samples and oxylipin profiling. The pregnant mice were injected i.p. with poly(I:C) (5.0 mg/kg/day for 6 days from E12 to E17) or saline, as described above. The male offspring were separated from their mothers at wearing (P21). On P28, mice were deeply anesthetized with isoflurane and brains were removed from the skulls. For Western blot analysis, brain regions such as prefrontal cortex (PFC), striatum, CA1, CA3 and dentate gyrus (DG) of the hippocampus were dissected from brain on ice using a Leica microscope S9E (Leica Microsystems, Tokyo, Japan). The samples were stored at −80° C. before assay. For oxylipin analysis, PFC, hippocampus, and cerebellum were dissected from brain on ice, and the samples were stored at −80° C. before assay. Measurement of eicosanoids was performed at UC Davis using the previous method (57).
# [2] = Measurement of glyphosate in the blood (LC/MS/MS); type: in vivo, mouse; details: mothers treated with 0.095% glyphosate E5-P21 and their offspring
# Experimental: Measurement of glyphosate in the blood. Water or 0.095% glyphosate was given to pregnant mice from E5 to P21, as described above. At weaning (P21), mothers and male offspring mice were deeply anesthetized with isoflurane and plasma was collected. The plasma samples were stored at −80° C. before assay. Measurement of glyphosate in the plasma was performed using LC/MS/MS at UC Davis.
# The 40 μL of internal standard (2 μg/mL of glyphosate-2-^13C solution in methanol) and 40 μL of methanol were added to 20 μL of plasma. The spiked sample was vortexed for 5 minutes and then centrifuged at […] for another 5 minutes. The supernatants were transferred for the followed LC/MS/MS measurement, which uses Waters Acquity UPLC system (Waters, Milford, MA) interfaced with a QTRAP 6500+ mass spectrometer (Sciex, Redwood City, CA) using electrospray source. The separation was achieved on a Waters Acquity BEH C18 50×2.1 mm 1.7 μm column with mobile phases of water with 0.1% of formic acid as mobile phase A and acetonitrile with 0.1% of formic acid as mobile phase B. The gradient was shown in Table 10. All the parameters on the mass spectrometer were optimized with pure standards of glyphosate and glyphosate-2-^13C (purchased from Millipore Sigma, Burlington MA) under positive MRM mode.
compound,measurement,setting,value
polyriboinosinic-polyribocytidilic acid [Poly(I:C)],5(6)-EpETrE level,[1]; PFC,222.07 ± 22.38 pmol/g tissue
same,6-keto-PGF1α level,[1]; PFC,22.088 ± 1.785 pmol/g tissue
same,8(9)-EpETrE level,[1]; PFC,6.725 ± 0.892 pmol/g tissue
same,9(10)-EpOME level,[1]; PFC,2.695 ± 0.424 pmol/g tissue
same,"9,10,13-TriHOME level",[1]; PFC,22.676 ± 3.814 pmol/g tissue
same,"9,10-DiHOME level",[1]; PFC,1.069 ± 0.188 pmol/g tissue
same,"9,12,13-TriHOME level",[1]; PFC,39.728 ± 6.854 pmol/g tissue
same,9-HODE level,[1]; PFC,24.253 ± 3.782 pmol/g tissue
same,9-oxo-ODE level,[1]; PFC,15.032 ± 2.690 pmol/g tissue
same,10(11)-EpDPE level,[1]; PFC,3.698 ± 0.292 pmol/g tissue
same,11(12)-EpETrE level,[1]; PFC,26.639 ± 3.530 pmol/g tissue
same,11-HETE level,[1]; PFC,72.292 ± 5.677 pmol/g tissue
same,12(13)-EpOME level,[1]; PFC,2.934 ± 0.435 pmol/g tissue
same,"12,13-DiHOME level",[1]; PFC,4.640 ± 0.477 pmol/g tissue
same,12-HETE level,[1]; PFC,28.597 ± 2.727 pmol/g tissue
same,13-HODE level,[1]; PFC,31.020 ± 5.237 pmol/g tissue
same,14(15)-EpETrE level,[1]; PFC,30.74 ± 5.605 pmol/g tissue
same,"15,16-DiHODE level",[1]; PFC,2.785 ± 0.414 pmol/g tissue
same,15-HETE level,[1]; PFC,68.997 ± 4.672 pmol/g tissue
same,"19,20-DiHDPE level",[1]; PFC,4.319 ± 0.331 pmol/g tissue
same,EKODE level,[1]; PFC,6.552 ± 1.725 pmol/g tissue
same,PGD2 level,[1]; PFC,147.79 ± 9.748 pmol/g tissue
same,PGE2 level,[1]; PFC,16.359 ± 1.175 pmol/g tissue
same,PGF2a level,[1]; PFC,86.798 ± 6.454 pmol/g tissue
same,Thromboxane B2 level,[1]; PFC,43.922 ± 3.349 pmol/g tissue
same,5(6)-EpETrE level,[1]; cerebellum,174.37 ± 11.71 pmol/g tissue
same,6-keto-PGF1a level,[1]; cerebellum,29.69 ± 1.379 pmol/g tissue
same,8(9)-EpETrE level,[1]; cerebellum,5.453 ± 0.582 pmol/g tissue
same,9(10)-EpOME level,[1]; cerebellum,3.076 ± 0.662 pmol/g tissue
same,"9,10,13-TriHOME level",[1]; cerebellum,20.84 ± 3.099 pmol/g tissue
same,"9,10-DiHOME level",[1]; cerebellum,1.283 ± 0.279 pmol/g tissue
same,"9,12,13-TriHOME level",[1]; cerebellum,37.62 ± 5.925 pmol/g tissue
same,9-HODE level,[1]; cerebellum,23.33 ± 2.571 pmol/g tissue
same,9-oxo-ODE level,[1]; cerebellum,16.56 ± 2.802 pmol/g tissue
same,10(11)-EpDPE level,[1]; cerebellum,6.061 ± 0.717 pmol/g tissue
same,11(12)-EpETrE level,[1]; cerebellum,21.10 ± 1.869 pmol/g tissue
same,12(13)-EpOME level,[1]; cerebellum,2.989 ± 0.423 pmol/g tissue
same,"12,13-DiHOME level",[1]; cerebellum,5.406 ± 0.682 pmol/g tissue
same,13-HODE level,[1]; cerebellum,30.47 ± 4.048 pmol/g tissue
same,14(15)-EpETrE level,[1]; cerebellum,26.63 ± 3.595 pmol/g tissue
same,"15,16-DiHODE level",[1]; cerebellum,2.772 ± 0.423 pmol/g tissue
same,15-HETE level,[1]; cerebellum,36.59 ± 3.256 pmol/g tissue
same,"19,20-DiHDPE level",[1]; cerebellum,9.767 ± 0.858 pmol/g tissue
same,EKODE level,[1]; cerebellum,7.801 ± 1.325 pmol/g tissue
same,PGD2 level,[1]; cerebellum,21.60 ± 1.774 pmol/g tissue
same,PGE2 level,[1]; cerebellum,6.969 ± 0.684 pmol/g tissue
same,PGF2a level,[1]; cerebellum,46.32 ± 3.830 pmol/g tissue
same,TXB2 level,[1]; cerebellum,14.62 ± 0.876 pmol/g tissue
same,12-HETE level,"[1]; cerebellum, first of two lines printed 12-HETE (r21)",34.19 ± 3.215 pmol/g tissue
same,12-HETE level,"[1]; cerebellum, second of two lines printed 12-HETE (r23)",75.46 ± 28.38 pmol/g tissue
same,5(6)-EpETrE level,[1]; hippocampus,333.09 ± 30.68 pmol/g tissue
same,6-keto-PGF1α level,[1]; hippocampus,47.853 ± 3.589 pmol/g tissue
same,8(9)-EpETrE level,[1]; hippocampus,10.53 ± 0.809 pmol/g tissue
same,9(10)-EpOME level,[1]; hippocampus,3.933 ± 0.304 pmol/g tissue
same,"9,10,13-TriHOME level",[1]; hippocampus,31.142 ± 2.301 pmol/g tissue
same,"9,10-DiHOME level",[1]; hippocampus,0.814 ± 0.116 pmol/g tissue
same,"9,12,13-TriHOME level",[1]; hippocampus,54.137 ± 3.954 pmol/g tissue
same,9-HODE level,[1]; hippocampus,34.887 ± 1.969 pmol/g tissue
same,9-oxo-ODE level,[1]; hippocampus,24.50 ± 1.957 pmol/g tissue
same,10(11)-EpDPE level,[1]; hippocampus,6.103 ± 0.347 pmol/g tissue
same,11(12)-EpETrE level,[1]; hippocampus,42.05 ± 3.911 pmol/g tissue
same,11-HETE level,[1]; hippocampus,106.263 ± 6.366 pmol/g tissue
same,12(13)-EpOME level,[1]; hippocampus,4.641 ± 0.393 pmol/g tissue
same,"12,13-DiHOME level",[1]; hippocampus,4.478 ± 0.528 pmol/g tissue
same,12-HETE level,[1]; hippocampus,83.22 ± 12.09 pmol/g tissue
same,13-HODE level,[1]; hippocampus,41.916 ± 2.454 pmol/g tissue
same,14(15)-EpETrE level,[1]; hippocampus,45.020 ± 3.734 pmol/g tissue
same,"15,16-DiHODE level",[1]; hippocampus,2.295 ± 0.364 pmol/g tissue
same,15-HETE level,[1]; hippocampus,100.514 ± 6.210 pmol/g tissue
same,"19,20-DiHDPE level",[1]; hippocampus,4.228 ± 0.321 pmol/g tissue
same,EKODE level,[1]; hippocampus,14.86 ± 0.949 pmol/g tissue
same,PGD2 level,[1]; hippocampus,119.25 ± 8.999 pmol/g tissue
same,PGE2 level,[1]; hippocampus,20.186 ± 1.410 pmol/g tissue
same,PGF2a level,[1]; hippocampus,153.113 ± 10.00 pmol/g tissue
same,Thromboxane B2 level,[1]; hippocampus,65.491 ± 5.906 pmol/g tissue
O=C(O)CNCP(=O)(O)O [glyphosate],blood levels of glyphosate on P21 (weaning),[2],could detect
